Data published in patent US6335339B1, “Triazine antiviral compounds” (Scriptgen Pharmaceuticals, Inc., priority 1998, dated 2002).

Legend:
HBV εRNA = assay: εRNA/oligonucleotide hybridization inhibition assay with rRNA competitor; type: binding, Hepatitis B virus; details: for IC50: radiolabeled εRNA, 60-fold excess rRNA competitor; for Specificity: ratio RRE+rRNA IC50/εRNA+rRNA IC50, max = inactive in RRE assay
Source text: One assay used in determining the activity of the compounds of the present invention is disclosed in copending U.S. patent application Ser. No. 08/709,342, filed Sep. 6, 1996, the disclosure of which is hereby incorporated herein by reference in its entirety. The assay detects the interaction between target RNA molecule and a test ligand by measuring the ligand's ability to inhibit hybridization between the RNA and a specific complementary oligonucleotide. In one embodiment, the target RNA is radiolabelled and the oligonucleotide is labeled with biotin; in this case, the extent of hybridization is determined by measuring the amount of radiolabeled RNA detected with a streptavidin/biotin-based capture system.
Concentrations of test compounds of between about 0.1 μM and about 200 μM are assayed for inhibition using radiolabeled εRNA in the absence or presence of a large excess of an unlabeled non-specific RNA competitor (such as, e.g., ribosomal RNA, rRNA). Compounds that bind εRNA non-specifically are competitively displaced by the rRNA, resulting in reduced or no inhibition of hybridization between the radiolabeled εRNA and the biotinylated oligonucleotide. Conversely, the inhibitory activity of compounds that specifically bind εRNA is not affected by the presence of the competitor rRNA.
The high throughput assays were performed in 96-well plates containing eighty drugs (5 μl, 60 μg/ml in DMSO) distributed one per well in columns 2-6 and 8-12 of the 8×12 96-well array. The remaining 16 wells in columns 1 and 7 were filled with 5 μl DMSO to serve as the control reactions. 45 μl of reaction mixture containing buffer, salts and radiolabeled target RNA were delivered on each well of the compound-containing plates to yield a 50 μl mixture containing 50 mM Tris-HCl, pH 7.5, 200 mM KCl, 5 mM MgCl2, 5 mM DTT, 6 μg/ml test compound, and 25 nM [^32 P]-labeled εRNA. The reaction was started by addition of the biotinylated oligonucleotide, 262.104 A (5 μl) to a final concentration of 100 nM. The reaction was incubated at 25° C. for 60 minutes, and then 5 μl of 0.3 mg/ml SAAP (streptavidin alkaline phosphatase conjugate, Pierce, Rockford, Ill.) was added. The reaction was incubated for an additional 30 minutes at 25° C. and filtered through 96-well format HATF nitrocellulose filters (Millipore, Bedford, Mass.) using a multiscreen vacuum manifold (Millipore, Bedford, Mass.). Subsequently, 300 μl of wash buffer (50 mM Tris-HCl, pH 7.5, 200 mM KCl) was filtered through to wash the filters. The filters were dried and supplemented with 20 μl scintillation fluid (Super Mix, Wallac Oy, Turku, Finland). The amount of hybrids formed was determined by scintillation counting of the radiolabeled εRNA retained on the filters.
The inhibitory effect of a test compound (expressed as percentage of inhibition, % Inh.) was calculated using the following formula: […]
where Ro is the average retention of hybrids in the 16 identical control reactions in columns 1 and 7 and Rx is the hybrids retained in the presence of a test drug, x.
(§1) Biotinylated oligonucleotides 262.104 A (5′-biotin-TTAGGCACAGCTTGGAGGCTTGAACAGTG-3′) and 208.92 A (5′-biotin-CGTCATTGACGCTGCGCCCA-3′) were synthetically prepared (Oligos Etc., Willsonville, Oreg.). These oligonucleotides are complementary to regions of the εRNA and RRE RNA targets, respectively.
A plasmid containing the target sequence following the bacteriophage SP6 promoter was used as a template for the synthesis of radiolabeled εRNA using [α^32 P]-UTP and SP6 RNA polymerase as described by the suppliers, e.g., Ambion, Austin, Tex., and by methods well known to those of ordinary skill in the art.
Compounds that inhibited the primary screening assay described above were individually titrated in the same assay at concentrations between 0.1 μM and 200 μM in the absence and presence of 60-fold excess rRNA as a non-specific competitor. […]

HIV derived RRE RNA = assay: heterologous hybridization inhibition assay with RRE RNA; type: binding; details: radiolabeled RRE RNA, rRNA competitor
Source text: Specificity is further tested in a third assay in which the radiolabeled RNA is the HIV derived RRE RNA and the biotinylated oligonucleotide is complementary to RRE. Compounds with high specific activity for εRNA are not expected to be inhibitory in the RRE RNA based assay. The specificity of the ligand for εRNA is expressed as the ratio between the IC50 value obtained with the specific target RNA and the IC50 value obtained with a heterologous target (RRE RNA), both in the presence of competitor RNA.
as §1
Compounds that inhibited the primary screening assay described above were individually titrated in the same assay at concentrations between 0.1 μM and 200 μM in the absence and presence of 60-fold excess rRNA as a non-specific competitor. A third titration was performed in a heterologous assay using radiolabeled RRE RNA as the target and the complementary biotinylated oligonucleotide 208.92 A. From these three assays, the IC50 values and specificity for each compound was calculated.
IC50 values using rRNA competitor (from Example 1) and radiolabeled RRE RNA are shown in Table 1 for the following ligands. […] Specificity is calculated as the ratio of RRE+rRNA IC50/εRNA+rRNA IC50.

SMILES	IC50 (HBV εRNA) [µM]	Specificity (HBV εRNA)	IC50 (HIV derived RRE RNA) [µM]
C(=NNc1nc(Nc2ccccc2)nc(N2CCCC2)n1)c1c[nH]c2ccccc12 [Compound 89]	12.5	6.0	75.3
O=[N+]([O-])c1ccc(Nc2nc(NN=Cc3cc(Br)ccc3O)nc(N3CCCCCC3)n2)cc1 [Compound 90]	15	3.0	44.9
Cc1[nH]c2ccccc2c1C=NNc1nc(Nc2ccc([N+](=O)[O-])cc2)nc(N2CCCCCC2)n1 [Compound 92]	2.5	4.0	10.1
CN1CCN(c2nc(NN=Cc3cccc(Br)c3)nc(Nc3ccc([N+](=O)[O-])cc3)n2)CC1 [Compound 95]	13.7	2.8	39
O=[N+]([O-])c1ccc(Nc2nc(NN=Cc3c(O)ccc4ccccc34)nc(N3CCOCC3)n2)cc1 [Compound 96]	15	5.0	75
O=[N+]([O-])c1ccc(Nc2nc(NN=Cc3cc(Cl)ccc3O)nc(N3CCOCC3)n2)cc1 [Compound 106]	12.1	5.8	70.1
O=[N+]([O-])c1ccc(Nc2nc(NN=Cc3cc(Br)ccc3O)nc(N3CCOCC3)n2)cc1 [Compound 107]	14.9	1.7	25
O=[N+]([O-])c1ccc(Nc2nc(NN=Cc3cc(I)ccc3O)nc(N3CCCCC3)n2)cc1 [Compound 108]	16.1	2.5	40
Cc1cc(I)cc(C=NNc2nc(Nc3ccc([N+](=O)[O-])cc3)nc(N3CCCCC3)n2)c1O [Compound 109]	20	1.8	35
O=[N+]([O-])c1ccc(Nc2nc(NN=Cc3ccccc3)nc(N3CCOCC3)n2)cc1 [Compound 110]	20	4.0	79.9
O=[N+]([O-])c1ccc(Nc2nc(NN=Cc3ccc(O)cc3)nc(N3CCCCC3)n2)cc1 [Compound 111]	23	20.0	460
Cc1ccccc1Nc1nc(NN=Cc2ccc(-c3ccc([N+](=O)[O-])cc3)o2)nc(Nc2ccc([N+](=O)[O-])cc2)n1 [Compound 112]	25	30.0	751
CCCCN(CCCC)c1nc(NN=Cc2cc3c(cc2Br)OCO3)nc(Nc2ccc([N+](=O)[O-])cc2)n1 [Compound 114]	40	5.5	220
CCN(CC)c1nc(NN=Cc2ccncc2)nc(Nc2ccc([N+](=O)[O-])cc2)n1 [Compound 115]	75.1	1.7	130
O=[N+]([O-])c1ccc(Nc2nc(NN=Cc3cccc(Oc4ccc([N+](=O)[O-])cc4[N+](=O)[O-])c3)nc(N3CCCCCC3)n2)cc1 [Compound 116]	20	1.3	25.1
CC(=NNc1nc(Nc2ccc([N+](=O)[O-])cc2)nc(N2CCOCC2)n1)c1ccc([N+](=O)[O-])cc1 [Compound 118]	25	2.0	50.1
Oc1ccc(C=NNc2nc(Nc3ccccc3)nc(N3CCCC3)n2)c(O)c1 [Compound 119]	35	7.1	250
O=[N+]([O-])c1ccc(Nc2nc(NN=Cc3ccccc3I)nc(N3CCCCC3)n2)cc1 [Compound 124]	29.9	10.0	300
COc1ccc(C=NNc2nc(Nc3ccccc3)nc(Nc3ccc(C)cc3C)n2)cc1 [Compound 126]	60.1	8.3	500
Clc1ccccc1C=NNc1nc(Nc2ccccc2)nc(N2CCCC2)n1 [Compound 127]	80	1.0	80
Cc1[nH]c2ccccc2c1C=NNc1nc(Nc2ccc([N+](=O)[O-])cc2)nc(N2CCOCC2)n1 [Compound 128]	22	4.5	99.9
